Assay [1] has as its system Jurkat cell (ATCC TIB-152). The assay can be described thus: Jurkat cell apoptosis by Fas antibody, WST-1 method. The format is cell-based. Particulars: Homo sapiens, Jurkat, apoptosis using Fas antibody, WST-1. As for the experimental part: The […] inhibitory activity of the inhibitors was determined by subjecting Jurkat cell (ATCC TIB-152) to apoptosis using Fas antibody (Upstate Biotech 05-201) and by detecting the color change according to the WST-1 method known in Francoeur A. M. and Assalian A. (1996) Biochemica 3, 19-25 to observe the amount of alive Jurkat cells when the cells were treated by the inhibitor. Spectra MAX 340 Spectrometer of Molecular Device Co. was used at the absorbance wavelength of 440 nm.
On the technique in general: Tetrazolium assays rely on reduction of a dye to a coloured formazan, in cell work by metabolically active cells.

A further assay concerns the target T1, caspase-8 (Homo sapiens, UniProt Q14790).
T1 construct: p10 and p20 subunits (Thornberry, N. A. et al, Nature, 1992, 356, 768) were expressed in E. coli; made in house; host or cells: E. coli
As to the kind of experiment: Caspase-8 inhibitory effect (fluorescent substrate AcDEVD-AFC). The format is biochemical. Particulars: pH 7.5; 25° C., 50 μM AcDEVD-AFC, 2.1 nM caspase-8; read-out: Caspase-8 Kobs/[I] (converted). As for the experimental part:
(§1) Caspase-1 and caspase-8 known as cysteine proteases in the form of α2β2 were expressed, purified, and activated by modifying a method known in Thornberry, N. A. et al, Nature, 1992, 356, 768. Thornberry, N. A. Methods in Enzymology, 1994, 244, 615. Walker, N. P. C. et al. Cell, 1994, 78, 343, and caspase-9 was also purified by a similar method, and the inhibitory activity against them was tested. Briefly describing, p10 and p20 subunits (Thornberry, N. A. et al, Nature, 1992, 356, 768) were expressed in E. coli and purified by nickel column and anionic exchange chromatography to give caspase-1, caspase-8 and caspase-9. The fluorescent substrate AcYVAD-AFC for thus obtained caspase-1, AcDEVD-AFC for caspase-8, and AcLEHD-AFC for caspase-9 were used for determining specific activity of the synthesized inhibitors. The enzyme reaction was carried out at 25° C. with various concentrations of the inhibitors in a buffer solution containing 50 mM HEPES(pH 7.50), 10% (w/v) sucrose, 0.1% (w/v) CHAPS, 100 mM NaCl, 1 mM EDTA, and 10 mM DTT in the presence of 50 μM AcYVAD-AFC for 10 nM caspase-1, 50 μM AcDEVD-AFC for 2.1 nM caspase-8, and 150 μM AcLEHD-AFC for 200 nM caspase-9. The inhibitory constants Ki and Kobs of the inhibitors were determined by measuring the reaction velocity with the time lapse using a fluorescent spectrometer and by obtaining the initial rate constant. Ki was calculated from the Lineweaver Burk Plot, and Kobs from the following Equation 1. Kobs=−ln(1−At/Aoo)/t Equation 1
(§2) At means cleavate rate (%) at time t, and
(§3) Aoo means the maximum cleavage rate (%).
(§4) Spectra MAX GeminiXS Fluorescent Spectrometer of Molecular Device Co. was used at the excitation wavelength of 405 nm and the emission wavelength of […].

The target of a further assay is T2, caspase-1 (Homo sapiens, UniProt P29466).
T2 construct: p10 and p20 subunits (Thornberry, N. A. et al, Nature, 1992, 356, 768) were expressed in E. coli; made in house; host or cells: E. coli
T2 sequence (P29466 120-297 limits assumed): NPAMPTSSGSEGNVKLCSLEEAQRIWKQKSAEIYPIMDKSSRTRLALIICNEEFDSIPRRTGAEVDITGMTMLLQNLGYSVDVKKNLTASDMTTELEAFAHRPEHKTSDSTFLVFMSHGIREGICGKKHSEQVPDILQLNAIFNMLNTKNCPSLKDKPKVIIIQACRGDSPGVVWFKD
T2 sequence (P29466 317-404 limits assumed): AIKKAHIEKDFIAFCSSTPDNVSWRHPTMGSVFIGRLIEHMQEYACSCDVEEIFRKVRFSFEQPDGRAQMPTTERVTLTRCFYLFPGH
As to the kind of experiment: Caspase-1 inhibitory effect (fluorescent substrate AcYVAD-AFC). The format is biochemical. Particulars: pH 7.5; 25° C., 50 μM AcYVAD-AFC, 10 nM caspase-1; read-out: Caspase-1 Kobs/[I] (converted). As for the experimental part:
as §1, §2, §3, §4

In another assay the target is T3, caspase-9 (Homo sapiens, UniProt P55211).
T3 construct: p10 and p20 subunits (Thornberry, N. A. et al, Nature, 1992, 356, 768) were expressed in E. coli; made in house; host or cells: E. coli
T3 sequence (P55211 1-315 limits assumed): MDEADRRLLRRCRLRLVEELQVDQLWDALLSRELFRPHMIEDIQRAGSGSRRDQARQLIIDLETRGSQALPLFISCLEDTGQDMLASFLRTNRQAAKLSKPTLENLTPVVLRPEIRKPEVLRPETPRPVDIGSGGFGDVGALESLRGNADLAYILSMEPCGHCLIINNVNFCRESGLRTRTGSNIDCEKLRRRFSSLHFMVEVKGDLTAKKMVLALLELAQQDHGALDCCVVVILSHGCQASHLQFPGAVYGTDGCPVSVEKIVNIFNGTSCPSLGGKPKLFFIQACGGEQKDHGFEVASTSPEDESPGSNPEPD
T3 sequence (P55211 331-416 limits assumed): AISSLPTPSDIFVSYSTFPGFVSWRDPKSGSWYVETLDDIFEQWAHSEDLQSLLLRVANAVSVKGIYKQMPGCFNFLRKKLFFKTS
As to the kind of experiment: Caspase-9 inhibitory effect (fluorescent substrate AcLEHD-AFC). It counts as biochemical. Particulars: pH 7.5; 25° C., 150 μM AcLEHD-AFC, 200 nM caspase-9; read-out: Caspase-9 Kobs/[I] (converted). As for the experimental part: as §1, with “The enzyme reaction was carried out at 25° C. with various concentrations of the inhibitors in a buffer solution containing 50 mM HEPES(pH 7.50), 10% (w/v) sucrose, 0.1% (w/v) CHAPS, 100 mM NaCl, 1 mM EDTA, and 10 mM DTT in the presence of 50 μM AcYVAD-AFC for 10 nM caspase-1, 50 μM AcDEVD-AFC for 2.1 nM caspase-8, and 150 μM AcLEHD-AFC for 200 nM caspase-9.” left out, “Kobs=−ln(1−At/Aoo)/t Equation 1” left out

The values that follow come from patent US7557133B2, “Caspase inhibitors containing isoxazoline ring” (LG Life Sciences Ltd., priority 2003, dated 2009).

Broadly, the IC50 is the concentration at which inhibition is half-maximal. Higher therefore signals weaker potency in that assay.

T1 sequence (Q14790 217-374 limits assumed, species assumed): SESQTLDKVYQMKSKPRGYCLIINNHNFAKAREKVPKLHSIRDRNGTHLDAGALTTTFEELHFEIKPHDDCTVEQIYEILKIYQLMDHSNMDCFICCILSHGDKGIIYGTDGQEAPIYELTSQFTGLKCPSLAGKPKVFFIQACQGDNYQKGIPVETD
T1 sequence (Q14790 385-479 limits assumed, species assumed): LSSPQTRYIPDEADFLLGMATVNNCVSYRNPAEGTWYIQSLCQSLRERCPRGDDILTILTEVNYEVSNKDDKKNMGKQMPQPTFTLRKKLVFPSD

In the case of `CCC1(C(=O)N[C@@H](CC(=O)O)C(=O)COc2c(F)c(F)cc(F)c2F)CC(c2ccccc2)=NO1` (stereo partly drawn) [Icc, (3S)-3-{[(5-ethyl-3-phenyl-4,5-dihydro-5-isoxazolyl)carbonyl]amino}-4-oxo-5-(2,3,5,6-tetrafluorophenoxy)pentanoic acid], in assay [1], the 50% inhibitory concentration (IC50) came to 22.5 µM. Further, the kinact/KI on caspase-8 is 550 M⁻¹ s⁻¹; at caspase-1 it was 3170 M⁻¹ s⁻¹.
Taken in the same sequence, the figures for `CCC1(C(=O)N[C@@H](CC(=O)O)C(=O)COc2c(F)c(F)cc(F)c2F)CC(c2cccc3ccccc23)=NO1` (stereo partly drawn) [Idd, (3S)-3-({[5-ethyl-3-(1-naphthyl)-4,5-dihydro-5-isoxazolyl]carbonyl}amino)-4-oxo-5-(2,3,5,6-tetrafluorophenoxy)pentanoic Acid] were 4.25 µM, 3170 M⁻¹ s⁻¹ and 5170 M⁻¹ s⁻¹.
Molecule `CCC1(C(=O)NC(CC(=O)O)C(=O)CF)CC(c2nccc3ccccc23)=NO1` (centres unmarked) [Igg, 3-({[5-Ethyl-3-(1-isoquinolinyl)-4,5-dihydro-5-isoxazolyl]carbonyl}amino)-5-fluoro-4-oxopentanoic acid] yielded an IC50 in assay [1] of 0.17 µM. Moreover, the figures for the kinact/KI on caspase-9, on caspase-8 and at caspase-1 were 5330 M⁻¹ s⁻¹, 25000 M⁻¹ s⁻¹ and 45000 M⁻¹ s⁻¹, respectively.
In assay [1], `CCC1(C(=O)N[C@@H](CC(=O)O)C(=O)COc2c(F)c(F)cc(F)c2F)CC(COc2cccc3ccccc23)=NO1` (stereo partly drawn) [Ipp, (3S)-3-[({5-Ethyl-3-[(1-naphthyloxy)methyl]-4,5-dihydro-5-isoxazolyl]carbonyl)amino]-4-oxo-5-(2,3,5,6-tetrafluorophenoxy)pentanoic acid] returned an IC50 of 3.5 µM. Besides, the kinact/KI on caspase-8 is 2830 M⁻¹ s⁻¹; at caspase-1 it was 38300 M⁻¹ s⁻¹.
With `CCC1(C(=O)N[C@@H](CC(=O)O)C(=O)COc2c(F)c(F)cc(F)c2F)CC(COc2ccc(Cl)c3ccccc23)=NO1` (stereo partly drawn) [Iqq, (3S)-3-{[(3-{[(4-Chloro-1-naphthyl)oxy]methyl}-5-ethyl-4,5-dihydro-5-isoxazolyl)carbonyl]amino}-4-oxo-5-(2,3,5,6-tetrafluorophenoxy)pentanoic acid], 37 µM corresponded to half-maximal inhibition in assay [1] (IC50). Further, the figures for the kinact/KI on caspase-8 and on caspase-1 were 2330 M⁻¹ s⁻¹ and 55000 M⁻¹ s⁻¹, respectively.
In assay [1], `CCC1(C(=O)NC(CC(=O)O)C(=O)CF)CC(c2cnc3ccccc3c2)=NO1` (centres unmarked) [Iyy, 3-({[5-ethyl-3-(3-quinolinyl)-4,5-dihydro-5-isoxazolyl]carbonyl}amino)-5-fluoro-4-oxopentanoic acid] yielded an IC50 of 31.2 µM. The kinact/KI at caspase-8 was 5170 M⁻¹ s⁻¹.
Molecule `CC(C)[C@@]1(C(=O)NC(CC(=O)O)C(=O)CF)CC(c2ccc3ccccc3n2)=NO1` (stereo partly drawn) [Izz, 5-Fluoro-3-({[(5R)-5-isopropyl-3-(2-quinolinyl)-4,5-dihydro-5-isoxazolyl]carbonyl}amino)-4-oxopentanoic Acid] returned an IC50 in assay [1] of 1.25 µM. In addition, the kinact/KI on caspase-8 is 7000 M⁻¹ s⁻¹.
